Source: US11708366B2, “Heteroaryl substituted spiropiperidinyl derivatives and pharmaceutical uses thereof” (Novartis AG, priority 2020, dated 2023)

What follows are compounds tested against LTC4S (Homo sapiens (Human), UniProt Q16873) (assay: Human whole blood HTRF assay (LTC4 release after calcium ionophore A23187)). Conditions: human whole blood HTRF IC50, human whole blood diluted 1:3, 4 h incubation, calcium ionophore A23187 stimulation, LTC4 by HTRF.
Type: cell-based
Procedure: B. Human Whole Blood HTRF Assay
LTC4 synthase catalyzes the conversion of Leukotriene A4 (LTA4) to Leukotriene C4 (LTC4) in the presence of reduced glutathione (GSH) as a co-substrate. For testing the inhibition of LTC4S, compounds are prepared for either eight-point or sixteen-point dose response studies in 384-well Labcyte low dead volume (LDV) plates. For eight-point dose response studies, compounds are diluted 1:5 starting at 1 μM concentration in 90% DMSO. […] Compounds are studied in duplicates. Ten wells are filled with 90% DMSO which correspond to the stimulated and unstimulated control wells. […] The morning of the assay, whole blood is collected from three human donors. Donors must be non-smokers and must not have taken NSAIDs within the 48 hours prior to blood collection. The amount of blood collected per donor depends on the amount of compounds to be tested and the dose response format in which they are to be studied (about 8 mL of whole blood for either 22 compounds in 8-point dose response format or 11 compounds in 16-point dose response format). […] 50 μL of diluted blood are then dispensed into each assay plate well with pre-dispensed compounds and DMSO for the stimulated and unstimulated controls using a Thermo Scientific™ Multidrop™ Combi reagent dispenser, and incubated at 37° C. for 4 hours. Calcium ionophore A23187 is used to induce a rapid increase in intracellular levels of Ca^2+. The Ca^2+ functions as a universal second messenger in various immune cells, such as T cells, B cells and mast cells, and is used to induce degranulation and release of eicosanoids, including LTC4, by cells contained in the whole blood samples. […] All but the unstimulated control wells are subsequently stimulated by dispensing 1 μL of the 0.5 mg/mL calcium ionophore suspension using the Thermo Scientific™ Multidrop™ Combi reagent dispenser. Plates are incubated for 15 minutes at 37° C. Plates are then centrifuged at 300 g for 10 minutes at room temperature to pellet blood cells and stop the reaction. […] Plates are sealed and stored at −80° C.
In order to measure the amount of LTC4 released by cells in the human blood samples during calcium ionophore stimulation, supernatants are analyzed using the Cisbio LTC4 homogeneous time-resolved FRET (HTRF) kit (Cisbio #64LC4PEH). […] Ten serially diluted standard curve solutions are also dispensed in duplicate into each plate as instructed in the protocol. Blank controls and cryptate control wells are also prepared. Then, 5 μL of anti-LTC4-d2 working solution are dispensed into all the wells, but the cryptate control wells. Subsequently, 5 μL of anti-LTC4-Eu3+ cryptate working solution are dispensed into all the wells. Plates are then covered with a lid and incubated at room temperature for one hour with gentle orbital shaking (˜450 rpm). […] HTRF ratios are calculated for each well by dividing the 665 nm intensity by the 620 nm intensity, and multiplying the resulting ratio by 10,000. LTC4 standard curves are interpolated for each plate and used to convert the HTRF ratio readouts into the amount of LTC4 present in each well (in ng/mL). Parametric curve fitting is used to obtain inhibition curves and IC50 values.

Row | Compound | IC50
1 | O=C1CCCC2(CCN(c3cc(=O)n(Cc4ccccc4)nc3OC3CCOCC3)CC2)N1c1ccc(F)c(F)c1 [Example 15b, 9-(1-benzyl-6-oxo-3-((tetrahydro-2H-pyran-4-yl)oxy)-1,6-dihydropyridazin-4-yl)-1-(3,4-difluorophenyl)-1,9-diazaspiro[5.5]undecan-2-one] | 180 nM
2 | O=C1CC(F)CC2(CCN(c3cc(OCC(F)(F)F)ncn3)CC2)N1c1ccc(F)c(F)c1 (stereo not drawn) [Example 119, 1-(3,4-difluorophenyl)-4-fluoro-9-(6-(2,2,2-trifluoroethoxy)pyrimidin-4-yl)-1,9-diazaspiro[5.5]undecan-2-one] | 29 nM

Same assay, conditions: human whole blood diluted 1:3, 4 h incubation, calcium ionophore A23187 stimulation, LTC4 by HTRF; read-out: human whole blood HTRF IC50

Row | Compound | IC50
3 | Nc1nc(O[C@@H]2COC[C@H]2F)cc(N2CCC3(CCCC(=O)N3c3ccc(F)c(F)c3)CC2)n1 (racemic) [Example 102, rac-9-(2-amino-6-(((3R,4R)-4-fluorotetrahydrofuran-3-yl)oxy)pyrimidin-4-yl)-1-(3,4-difluorophenyl)-1,9-diazaspiro[5.5]undecan-2-one] | 9 nM
4 | O=C1CCCC2(CCN(c3cnnc(N4CCC(O)(C(F)(F)F)CC4)c3)CC2)N1c1ccc(F)c(F)c1 [Example 42, 1-(3,4-difluorophenyl)-9-(6-(4-hydroxy-4-(trifluoromethyl)piperidin-1-yl)pyridazin-4-yl)-1,9-diazaspiro[5.5]undecan-2-one] | 410 nM
5 | CC(Oc1cc(N2CCC3(CCCC(=O)N3c3ccc(F)c(F)c3)CC2)ncn1)C(F)(F)F (racemic) [Example 86, rac-1-(3,4-dfluorophenyl)-9-(6-((1,1,1-trifluoropropan-2-yl)oxy)pyrimidin-4-yl)-1,9-diazaspiro[5.5]undecan-2-one] | 2 nM
6 | [2H]C([2H])(Oc1cc(N2CCC3(CCCC(=O)N3c3ccc(F)c(F)c3)CC2)nc(N)n1)C(F)(F)F [Example 92, 9-(2-amino-6-(2,2,2-trifluoroethoxy-1,1-d2)pyrimidin-4-yl)-1-(3,4-difluorophenyl)-1,9-diazaspiro[5.5]undecan-2-one] | 5 nM
7 | NC1(C(F)(F)F)CCN(c2ccnc(N3CCC4(CCCC(=O)N4c4ccc(F)c(F)c4)CC3)n2)CC1 [Example 39, 9-(4-(4-amino-4-(trifluoromethyl)piperidin-1-yl)pyrimidin-2-yl)-1-(3,4-difluorophenyl)-1,9-diazaspiro[5.5]undecan-2-one] | 4 nM
8 | O=C1CCCC2(CCN(c3cc(-n4ccc(C(F)(F)F)n4)ncn3)CC2)N1c1ccc(F)c(F)c1 [Example 57, 1-(3,4-difluorophenyl)-9-(6-(3-(trifluoromethyl)-1H-pyrazol-1-yl)pyrimidin-4-yl)-1,9-diazaspiro[5.5]undecan-2-one] | 850 nM
9 | Nc1nc(N2CCC3(CCCC(=O)N3c3ccc(F)c(F)c3)CC2)cc(-n2cc(C(F)(F)F)cn2)n1 [Example 64, 9-(2-amino-6-(4-(trifluoromethyl)-1H-pyrazol-1-yl)pyrimidin-4-yl)-1-(3,4-difluorophenyl)-1,9-diazaspiro[5.5]undecane-2-one] | 2 nM
10 | Nc1nc(N[C@@H]2CCOC2)cc(N2CCC3(CCCC(=O)N3c3ccc(F)c(F)c3)CC2)n1 [Example 112, (R)-9-(2-amino-6-((tetrahydrofuran-3-yl)amino)pyrimidin-4-yl)-1-(3,4-difluorophenyl)-1,9-diazaspiro[5.5]undecan-2-one] | 67 nM
11 | Cc1nc(N2CCC3(CCCC(=O)N3c3ccc(F)c(F)c3)CC2)cc(-n2cccn2)n1 [Example 48, 1-(3,4-difluorophenyl)-9-(2-methyl-6-(1H-pyrazol-1-yl)pyrimidin-4-yl)-1,9-diazaspiro[5.5]undecan-2-one] | 45 nM
12 | O=C1CCCC2(CCN(c3cc(C(F)(F)C(F)(F)F)nc(CO)n3)CC2)N1c1ccc(F)c(F)c1 [Example 79, 1-(3,4-difluorophenyl)-9-(2-(hydroxymethyl)-6-(perfluoroethyl)pyrimidin-4-yl)-1,9-diazaspiro[5.5]undecane-2-one] | 56 nM
13 | (S)-1-(3,4-difluorophenyl)-9-(2-(hydroxymethyl)-6-((1,1,1-trifluoropropan-2-yl)oxy)pyrimidin-4-yl)-1,9-diazaspiro[5.5]undecan-2-one or (R)-1-(3,4-difluorophenyl)-9-(2-(hydroxymethyl)-6-((1,1,1-trifluoropropan-2-yl)oxy)pyrimidin-4-yl)-1,9-diazaspiro[5.5]undecan-2-one [Example 110a] | 3 nM
14 | O=C1CCCC2(CCN(c3cc(O[C@H]4CCOC4)nc(Cl)n3)CC2)N1c1ccc(F)c(F)c1 [Example 71, (S)-9-(2-chloro-6-((tetrahydrofuran-3-yl)oxy)pyrimidin-4-yl)-1-(3,4-difluorophenyl)-1,9-diazaspiro[5.5]undecan-2-one] | 580 nM
15 | O=C1CCCC2(CCN(c3cc(-n4cccn4)nc(C(F)(F)F)n3)CC2)N1c1ccc(F)c(F)c1 [Example 51, 9-(6-(1H-pyrazol-1-yl)-2-(trifluoromethyl)pyrimidin-4-yl)-1-(3,4-difluorophenyl)-1,9-diazaspiro[5.5]undecan-2-one] | 70 nM
16 | Nc1nc(N2CCC3(CCCC(=O)N3c3ccc(F)c(F)c3)CC2)cc(C(F)(F)C(F)F)n1 [Example 78, 9-(2-amino-6-(1,1,2,2-tetrafluoroethyl)pyrimidin-4-yl)-1-(3,4-difluorophenyl)-1,9-diazaspiro[5.5]undecan-2-one] | 24 nM
17 | O=C1CCCC2(CCN(c3cc(-n4cc(Cl)cn4)ncn3)CC2)N1c1ccc(F)c(F)c1 [Example 55, 9-(6-(4-chloro-1H-pyrazol-1-yl)pyrimidin-4-yl)-1-(3,4-difluorophenyl)-1,9-diazaspiro[5.5]undecan-2-one] | 6 nM
18 | O=C1OCCC2(CCN(c3cc(-n4cc(C(F)(F)F)cn4)nc(CO)n3)CC2)N1c1ccc(F)c(F)c1 [Example 114, 1-(3,4-difluorophenyl)-9-(2-(hydroxymethyl)-6-(4-(trifluoromethyl)-1H-pyrazol-1-yl)pyrimidin-4-yl)-3-oxa-1,9-diazaspiro[5.5]undecan-2-one] | 7 nM
19 | O=C1CCCC2(CCN(c3cc(-n4cc(C(F)(F)F)cn4)ncn3)CC2)N1c1ccc(F)c(F)c1 [Example 47, 1-(3,4-difluorophenyl)-9-(6-(4-(trifluoromethyl)-1H-pyrazol-1-yl)pyrimidin-4-yl)-1,9-diazaspiro[5.5]undecan-2-one] | 7 nM
20 | CC1(C(Oc2cc(N3CCC4(CCCC(=O)N4c4ccc(F)c(F)c4)CC3)nc(N)n2)C(F)(F)F)COC1 (racemic) [Example 96, rac-9-(2-amino-6-(2,2,2-trifluoro-1-(3-methyloxetan-3-yl)ethoxy)pyrimidin-4-yl)-1-(3,4-difluorophenyl)-1,9-diazaspiro[5.5]undecan-2-one] | 3 nM
21 | O=C1CC(F)CC2(CCN(c3cc(OC4CCOCC4)ncn3)CC2)N1c1ccc(F)c(F)c1 (racemic) [Example 118, rac-1-(3,4-difluorophenyl)-4-fluoro-9-(6-((tetrahydro-2H-pyran-4-yl)oxy)pyrimidin-4-yl)-1,9-diazaspiro[5.5]undecan-2-one] | 8 nM
22 | (R)-9-(2-amino-6-((1,1,1-trifluoropropan-2-yl)oxy)pyrimidin-4-yl)-1-(3,4-difluorophenyl)-3-oxa-1,9-diazaspiro[5.5]undecan-2-one, or (S)-9-(2-amino-6-((1,1,1-trifluoropropan-2-yl)oxy)pyrimidin-4-yl)-1-(3,4-difluorophenyl)-3-oxa-1,9-diazaspiro[5.5]undecan-2-one [Example 113a] | 15 nM
23 | Nc1nc(O[C@H]2COC[C@H]2F)cc(N2CCC3(CCCC(=O)N3c3ccc(F)c(F)c3)CC2)n1 (racemic) [Example 105, rac-9-(2-amino-6-(((3S,4R)-4-fluorotetrahydrofuran-3-yl)oxy)pyrimidin-4-yl)-1-(3,4-difluorophenyl)-1,9-diazaspiro[5.5]undecan-2-one] | 6 nM
24 | CC1(Oc2cc(N3CCC4(CCCC(=O)N4c4ccc(F)c(F)c4)CC3)nc(N)n2)CCOC1 (racemic) [Example 104, rac-9-(2-amino-6-((3-methyltetrahydrofuran-3-yl)oxy)pyrimidin-4-yl)-1-(3,4-difluorophenyl)-1,9-diazaspiro[5.5]undecan-2-one] | 5 nM
